Measured values reported in patent US9290792B2, “Method for measuring calcineurin activity” (UNIVERSITE PARIS DESCARTES, priority 2012, dated 2016).
pIC50: −log10 of the molar value.

How the values were obtained:
[1] = biological target: protein phosphatase 1 (PP-1); conditions: cited from earlier work
[2] = biological target: protein phosphatase 2A (PP-2A); conditions: cited from earlier work
[3] = biological target: protein phosphatase 2B (PP-2B); conditions: cited from earlier work
[4] = system: kinases present in the cellular extracts (PBMC); experiment: Calcineurin kinetic experiments in PBMC cytosolic proteins in the presence or absence of kinase inhibitors (LC-MS/MS of DP-RII peptide); assay type: biochemical, human; conditions: 5 μg PBMC cytosolic proteins from healthy volunteers, FIG. 1; for production of DP-RII peptide vs control: 37° C., up to 120 min, 500 nM okadaic acid, ANOVA test
Protocol: FIG. 1: Calcineurin kinetic experiments were performed in the presence or absence of two different kinase inhibitors. The production of DP-RII peptide was quantified using LC-MS/MS analysis.
PBMCs obtained from either healthy volunteers or transplant patients were resuspended in a buffer containing 50 mM Tris, pH=7.0, 0.1 mM EGTA, 0.05 mM dithiothreitol, 0.1% tween 20, 0.3 mg/mL albumin, 1 mM MnCl2, 1 mM CaCl2 and protease inhibitors. These cellular extracts were sonicated on ice, and centrifuged for 30 minutes at 10.000 g at 4° C. The supernatants corresponding primarily to the cytosolic fractions were recovered and their protein content was determined. These cellular extracts can be stored at −80° C. for later measurement of CN activity.
One to 5 μg of proteins obtained from PBMC, prepared as described above, were used for measuring calcineurin activity in a reaction mixture containing 500 nM okadaic acid, 1 mg/L internal standard, 20 μM H89, 8 mg/L phosphorylated RII peptide and 0.03 units calmodulin in 15 μL 50 mM Tris-HCl, pH=7.0. Enzymatic reaction was carried out at 37° C. for 30 min and then, the reaction tubes were cooled on ice and the enzymatic reaction was stopped by addition of 15 μL of a solution of 5% trichloroacetic acid. After centrifugation for 5 minutes at 12.000 g at 4° C., supernatants were transferred to […] into 1.5 mL glass autoinjector vials and kept at 4° C. in autosampler before injection. […]
The inventors assessed the kinetics of calcineurin in the presence or not of 2 different kinase inhibitors: H89, an unspecific inhibitor and Rp-adenosine 3′,5′-cyclic monophosphorothioate, a specific inhibitor of PKA.
A first set of experiments was performed using 5 μg of PBMC cytosolic proteins issued from healthy volunteers. […] The enzymatic reactions were stopped at the indicated time points (up to 120 min) and peptide amounts were quantified by LC-MS/MS.

SMILES | pIC50 [1] | pIC50 [2] | pIC50 [3] | production of DP-RII peptide vs control [4] | inhibition obtained vs that obtained with the PKA specific inhibitor ([4]; p=0.0163)
C=C1[C@@H](O)[C@@H]2O[C@]3(CC[C@H](/C=C/[C@@H](C)[C@@H]4CC(C)=C[C@@]5(O[C@H](C[C@@](C)(O)C(=O)O)CC[C@H]5O)O4)O3)CC[C@H]2O[C@@H]1[C@@H](O)C[C@H](C)[C@H]1O[C@@]2(CCCCO2)CC[C@H]1C [Okadaic acid, 9,10-Deepithio-9,10-didehydroacanthifolicin] | 7.00 to 7.70 | 9.00 to 10.00 | < 5.30 | – | –
O=S(=O)(NCCNC/C=C/c1ccc(Br)cc1)c1cccc2cnccc12 [H89] | – | – | – | significantly higher | significantly higher
Nc1ncnc2c1ncn2[C@@H]1O[C@@H]2COP(O)(=S)O[C@H]2[C@H]1O (stereo partly drawn) [PKA specific inhibitor, Rp-adenosine 3′,5′-cyclic monophosphorothioate] | – | – | – | significantly higher | –
